In ChEMBL document CHEMBL2406908, “Re-engineering of the duocarmycin structural architecture enables bioprecursor development targeting CYP1A1 and CYP2W1 for biological activity” (J Med Chem, 2013):
Activity calls are given as the source filed them. The calls are words filed in the database; no cut-off is given here.

Experiments:
CYP1A1 [1] = test: Potentiation factor, ratio of IC50 for wild type CHO cells to IC50 of CHO cells expressing CYP1A1; type: ADME, cell-based, Cricetulus griseus; conditions: chinese hamster, wild type CHO cells and CHO cells expressing CYP1A1; read-out: Ratio IC50
CYP1A1 [2] = test: Potentiation factor, ratio of IC50 for wild type HEK293 cells to IC50 of HEK293 cells expressing CYP1A1; type: ADME, cell-based; conditions: human, wild type HEK293 cells and HEK293 cells expressing CYP1A1; read-out: Ratio IC50
RT-112 [3] = test: Antiproliferative activity against human RT112 cells expressing CYP1A1 assessed as growth inhibition after 96 hrs by MTT assay; type: functional, cell-based; conditions: RT-112, 96 h
CHO [4] = test: Antiproliferative activity against CHO cells expressing CYP1A1 assessed as growth inhibition after 96 hrs by MTT assay; type: functional, cell-based; conditions: Cricetulus griseus
CHO [5] = test: Antiproliferative activity against CHO cells assessed as growth inhibition after 96 hrs by MTT assay; type: cell-based; conditions: Cricetulus griseus
HEK293 [6] = test: Antiproliferative activity against human HEK293 cells expressing CYP2W1 assessed as growth inhibition after 96 hrs by MTT assay; type: functional, cell-based; conditions: HEK293, 96 h
HEK293 [7] = test: Induction of DNA damage in mock-transfected human HEK293 assessed as phosphorylation of gammaH2A.X at 0.5 to 5 uM after 48 hrs by Western blotting analysis; type: cell-based; conditions: hek293, 48 h
HEK293 [8] = test: Induction of cell death in human HEK293 cells expressing CYP2W1 t 0.5 to 5 uM after 48 hrs by trypan blue assay; type: functional, cell-based
HEK293 [9] = test: Induction of cell death in mock-transfected human HEK293 cells t 0.5 to 5 uM after 48 hrs by trypan blue assay; type: cell-based; conditions: hek293, 48 h
RT-112 [10] = test: Induction of DNA damage in human RT112 cells assessed as phosphorylation of gammaH2A.X at 0.5 to 5 uM after 48 hrs by Western blotting analysis; type: functional, cell-based
HEK293 [11] = test: Induction of DNA damage in human HEK293 cells expressing CYP2W1 assessed as phosphorylation of gammaH2A.X at 0.5 to 5 uM after 48 hrs by Western blotting analysis; type: functional, cell-based
RT-112 [12] = test: Induction of cell death in human RT112 cells after 48 hrs at 0.5 to 5 uM by trypan blue assay; type: functional, cell-based
[13] = Antiproliferative activity against human EJ138 cells after 96 hrs by MTT assay; type: functional, cell-based; conditions: EJ138, 96 h
[14] = Antiproliferative activity against human EJ138 cells treated with extract obtained from 1 hr incubation of compound with CYP1A2 bactosome measured after 96 hrs by MTT assay; type: functional, cell-based
[15] = Potentiation factor, ratio of IC50 for human EJ138 cells treated with extract obtained from 1 hr incubation of compound with control bactosome to IC50 of human EJ138 treated with extract obtained from 1 hr incubation of compound with CYP1B1 bactosome; type: functional
[16] = Potentiation factor, ratio of IC50 for human EJ138 cells treated with extract obtained from 1 hr incubation of compound with control bactosome to IC50 of human EJ138 treated with extract obtained from 1 hr incubation of compound with CYP3A4 bactosome; type: functional
[17] = Antiproliferative activity against human EJ138 cells treated with extract obtained from 1 hr incubation of compound with CYP1A1 bactosome measured after 96 hrs by MTT assay; type: functional, cell-based
[18] = Potentiation factor, ratio of IC50 for human EJ138 cells treated with extract obtained from 1 hr incubation of compound with control bactosome to IC50 of human EJ138 treated with extract obtained from 1 hr incubation of compound with CYP1A1 bactosome; type: functional
[19] = Antiproliferative activity against human EJ138 cells treated with extract obtained from 1 hr incubation of compound with CYP3A4 bactosome measured after 96 hrs by MTT assay; type: functional, cell-based
[20] = Potentiation factor, ratio of IC50 for human EJ138 cells treated with extract obtained from 1 hr incubation of compound with control bactosome to IC50 of human EJ138 treated with extract obtained from 1 hr incubation of compound with CYP2D6 bactosome; type: functional
[21] = Antiproliferative activity against human EJ138 cells treated with extract obtained from 1 hr incubation of compound with control bactosome measured after 96 hrs by MTT assay; type: functional, cell-based
[22] = Drug metabolism in mouse liver microsomes at 100 uM after 2 hrs by HPLC/mass spectrometry analysis in presence of NADPH; type: ADME, Microsome
[23] = Antiproliferative activity against human EJ138 cells treated with extract obtained from 1 hr incubation of compound with CYP1B1 bactosome measured after 96 hrs by MTT assay; type: functional, cell-based
[24] = Potentiation factor, ratio of IC50 for human EJ138 cells treated with extract obtained from 1 hr incubation of compound with control bactosome to IC50 of human EJ138 treated with extract obtained from 1 hr incubation of compound with CYP1A2 bactosome; type: functional
Liver = test: Drug metabolism in mouse liver homogenate at 100 uM up tp 120 mins by LC/MS analysis; type: ADME, tissue-based; conditions: tissue homogenate, 2 h
[25] = Antiproliferative activity against human EJ138 cells treated with extract obtained from 1 hr incubation of compound with CYP2D6 bactosome measured after 96 hrs by MTT assay; type: functional, cell-based
HEK293 [26] = test: Antiproliferative activity against human HEK293 cells assessed as growth inhibition after 96 hrs by MTT assay; type: cell-based; conditions: HEK293, 96 h

Row | Structure (SMILES) | selectivity ratio (CYP1A1 [1]) | selectivity ratio (CYP1A1 [2]) | IC50 (RT-112 [3]) | IC50 (CHO [4]) | IC50 (CHO [5]) | IC50 (HEK293 [6]) | further results
1 | O=C(c1cc2cc(Cl)ccc2[nH]1)N1CC(CCl)c2c1ccc1[nH]ccc21 (stereo not drawn) | > 23200 | 41.7 | 0.7 µM | < 0.001 µM | 23.2 µM | 0.3 µM | –
2 | COc1ccc2[nH]c(C(=O)N3CC(CCl)c4c3ccc3[nH]ccc43)cc2c1 (stereo not drawn) | > 3200 | 14.7 | 0.2 µM | < 0.001 µM | 3.2 µM | 0.6 µM | Activity (HEK293 [7]): Non-toxic; Activity (HEK293 [8]): Active; Activity (HEK293 [9]): Non-toxic; Activity (RT-112 [10]): Active; Activity (HEK293 [11]): Active; Activity (RT-112 [12]): Active
3 | COc1cc2cc(C(=O)N3CC(CCl)c4c3ccc3[nH]ccc43)[nH]c2cc1OC (stereo not drawn) | > 3000 | 1.3 | 0.3 µM | < 0.001 µM | 3 µM | 6.1 µM | Activity (HEK293 [7]): Non-toxic; Activity (HEK293 [8]): Active; Activity (HEK293 [9]): Non-toxic; Activity (RT-112 [10]): Active; Activity (HEK293 [11]): Active; Activity (RT-112 [12]): Active
4 | COc1cc2cc(C(=O)N3CC(CCl)c4c3ccc3[nH]ccc43)[nH]c2c(OC)c1OC (stereo not drawn) | 2.4 | 1.1 | 7 µM | 3.1 µM | 7.5 µM | 11.1 µM | Activity (HEK293 [7]): Non-toxic; Activity (HEK293 [8]): Active; Activity (HEK293 [9]): Non-toxic; Activity (RT-112 [10]): Active; Activity (HEK293 [11]): Active; Activity (RT-112 [12]): Active
5 | O=C(c1cc2cc(F)cc(F)c2[nH]1)N1CC(CCl)c2c1ccc1[nH]ccc21 (stereo not drawn) | < 21 | 1.1 | 12.3 µM | > 1 µM | 21 µM | 9.1 µM | –
6 | O=C(c1cc2cc(F)c(F)cc2[nH]1)N1CC(CCl)c2c1ccc1[nH]ccc21 (stereo not drawn) | 80 | 2.6 | 1.8 µM | 0.23 µM | 18.4 µM | 3.7 µM | –
7 | O=C(c1cc2cc(F)ccc2[nH]1)N1CC(CCl)c2c1ccc1[nH]ccc21 (stereo not drawn) | 251 | 21 | 11.1 µM | 0.09 µM | 22.6 µM | 0.5 µM | –
8 | COc1ccc2[nH]c(C(=O)N3CC(CCl)c4c3ccc3ccccc43)cc2c1 (stereo not drawn) | – | – | > 50 µM | 0.96 µM | > 50 µM | > 50 µM | IC50 [13]: 2.88 µM; IC50 [14]: 2.23 µM; Ratio IC50 [15]: 1.3; Ratio IC50 [16]: 1.91; IC50 [17]: 0.02 µM; Ratio IC50 [18]: 100; IC50 [19]: 1.04 µM; Ratio IC50 [20]: 0.79; IC50 [21]: 1.99 µM; Drug metabolism [22]: Active; IC50 [23]: 1.53 µM; Ratio IC50 [24]: 0.9; Drug metabolism (Liver): Active; IC50 [25]: 2.53 µM
9 | COc1ccc2[nH]c(C(=O)N3CC(CCl)c4c3cc(O)c3[nH]ccc43)cc2c1 (stereo not drawn) | 0.2 | 1.2 | 0.000125 µM | 0.000624 µM | 0.000167 µM | 0.000376 µM | IC50 (HEK293 [26]): 0.000453 µM
10 | CS(=O)(=O)c1cc(F)cc2cc(C(=O)N3CC(CCl)c4c3ccc3[nH]ccc43)[nH]c12 (stereo not drawn) | 0.8 | 0.9 | 7.7 µM | 4.1 µM | 3.2 µM | 12.2 µM | –
11 | COc1ccc2[nH]c(C(=O)N3CC(CCl)c4c3cc(O)c3ccccc43)cc2c1 (stereo not drawn) | 1.9 | 0.2 | 151 µM | 102 µM | 194 µM | 641 µM | –
12 | O=C(c1cc2cc(O)ccc2[nH]1)N1CC(CCl)c2c1ccc1[nH]ccc21 (stereo not drawn) | 11 | 0.8 | 32.7 µM | 0.3 µM | 3.3 µM | 20.5 µM | –
